Measurements taken from PMC8344021, “Discovery of Small Molecule Bak Activator for Lung Cancer Therapy” (Theranostics, 2021).

Experiments:
[1] = test system: Bak-/- A549 xenografts; test: Bak-/- A549 xenografts, tumor growth; format: in vivo, Nu/Nu nude mice; conditions: 12.5mg/kg/d i.p., 28 days
Protocol: (§1) Six-week-old female Nu/Nu nude mice were purchased from Envigo (Indianapolis, IN) and housed under pathogen-free conditions in microisolator cages. The animal propagation protocol was approved by the Emory Institutional Animal Care and Use Committee (IACUC) and the Emory Animal Ethics Committee. 3×10^6 lung cancer cells were injected into subcutaneous tissue in the flank region of nude mice. The tumors were allowed to grow to an average volume of 150~200 mm^3 prior to initiation of therapy as previously described, [29]. Patient-derived xenografts (PDXs, TKO-002 and TKO-005) were established as part of an IRB-approved phase II co-clinical trial of arsenic trioxide in patients with relapsed SCLC who had failed standard platinum-based chemotherapy. Tumor samples were obtained by image-guided biopsy and were directly implanted into Nu/Nu nude mice without intervening propagation in plastic culture plates. Direct serial propagation of growing tumor occurred for up to 5 generations. The animal propagation protocol was approved by the Emory IACUC and the Emory Animal Ethics Committee. Mice with SCLC and NSCLC xenografts or PDXs were treated with BKA-073 intraperitoneally (i.p.) or venetoclax orally as indicated. During treatment, tumor volume (V) was measured by caliper measurements once every two days as described previously. Mice were euthanized by CO2 inhalation at the end of treatment. […]

[2] = test system: NSCLC and SCLC cell lines; test: Dynamic BH3 profiling in panel of NSCLC and SCLC cell lines; format: cell-based, human; conditions: 1μM, 16h
Protocol: DBP using Bim peptide was carried out as described previously [24]-[26]. After treatment with BKA-073, venetoclax (ABT-199) or DMSO control for 16h, cells were collected, washed and resuspended at 2 x 10^6 cells/ mL in mannitol experimental buffer (MEB) [150 mM D-mannitol, 10 mM HEPES-KOH (pH 7.5), 50 mM KCl, 20 μM EGTA, 20 μM EDTA, 0.1% BSA, and 5 mM succinate] as described. One volume of the 4x cell suspension was added to one volume of a 4x dye solution containing 4 μM JC-1, […] oligomycin, 0.02% digitonin, 20mM β-mercaptoethanol in MEB. The 2x cell/dye mixture was allowed to rest for 5-10 min at room temperature to allow for permeabilization and JC-1 staining. A total of 15μl of the 2x cell/dye mixture was loaded into a 384-well plate that contained 15µL of Bim BH3 peptide (0.03, 0.1, 0.3, 1, and 3 μM) in MEB, shaken for 15 s inside the reader, and the fluorescence at 590 nm monitored every 5 min for 180 min at 32 °C. The dynamic BH3 profile (∆ % Priming) was calculated as described [24]-[26].
Figure 1 Discovery of small molecule BKA-073 as a lead compound that targets BH3 domain of Bak and induces mitochondrial priming and apoptosis in lung cancer cells. (A) Schematic illustration of screening strategies used to identify the lead Bak agonist BKA-073 and its chemical structure. […] (C) Expression levels of Bak were analyzed by Western blot in NSCLC and SCLC cell lines. […]

[3] = test system: A549-IRR xenografts; test: Radioresistant A549-IRR xenografts, tumor growth; format: in vivo, Nu/Nu nude mice; conditions: 15 mg/kg/d, 4 weeks
Protocol: as §1, with “The animal propagation protocol was approved by the Emory IACUC and the Emory Animal Ethics Committee. Mice with SCLC and NSCLC xenografts or PDXs were treated with BKA-073 intraperitoneally (i.p.) or venetoclax orally as indicated.” left out, “previously.” for “previously. Mice were euthanized by CO2 inhalation at the end of treatment.”
Figure S7. […] (A) Expression levels of Bak in A549-P versus A549-IRR cells, H358-P versus H358 -IRR cells or H460-P versus H460-IRR cells were analyzed by Western blot. […]
Tumor volume was measured once every 2 days. After treatment, mice were sacrificed and tumors were removed and analyzed. […]

COc1ccc2nc3ccccc3c(NCCNCC(C)O)c2c1 (stereo not drawn) [BKA-073]
tumor growth [1]: no inhibitory effect | induction of mitochondrial priming [2]: potently induced | tumor growth [3]: repressed xenografts
